Laboratory results: patent US20210292680A1, “MULTIFUNCTIONAL AROMATIC ALCOHOLS FOR PERSONAL CARE, HOME CARE AND INDUSTRIAL AND INSTITUTIONAL COMPOSITIONS” (EMERALD KALAMA CHEMICAL, LLC, priority 2018, published 2021)

How the values were obtained:
[1] = Shear ramp, aqueous solution (viscosity); type: physicochemical; conditions: hand dish wash
Method: Shear Ramp aqueous solution: The 40 mm cone and plate geometry was used on an AR2000ex rheometer at 25° C. A gap of 29 μm was used. The shear was ramped from 0 s^−1 to 2000 s^−1 over six minutes. Shear rate is expressed in s^−1 or 1/s. Viscosity readings are expressed in Pa·s.
At 0.5 wt. %, the low shear viscosity increased roughly 36% over the control, while high shear viscosity increased roughly 43%. (Results not shown.)
R=4 Aromatic Alcohols. Similarly, viscosity modifying behavior is observed in a hand dish wash aqueous surfactant solution using an aromatic alcohol, where R=4 carbons (2-methyl-3-phenylpropanol). […] For 0.5 wt. % aromatic alcohol, the low shear viscosity increased 110% over the control, while high shear viscosity increased approximately 37%. At 1.0 wt. % aromatic alcohol, the viscosity profile changed, yielding increases in low and high shear viscosity of 56% and 94%, respectively.

[2] = Process defoaming evaluation (modified ASTM E2407-04); conditions: 0.4 wt. % aromatic alcohol; 2.0 wt. % BioSoft N1-7 solution
Method: Defoaming evaluation: Process defoaming was tested using a modified ASTM method (E2407-04 (2015) Standard Test Method for Effectiveness of Defoaming Agents). 250 mL of a 2.0 wt. % surfactant solution was blended at the highest speed setting for 30 seconds, then let sit for 3 minutes. The initial foam height is measured, and then 0.4 wt. % defoamer is dropped onto the surface of the foam. The blender is turned on low speed and the solution is mixed for 1 minute. Foam height is re-measured after an additional five minutes of sitting.
Process defoaming was tested using a modified ASTM method (E2407-04 (2015) Standard Test Method for Effectiveness of Defoaming Agents) to assess surfactants and determine if there was a relationship between foam destabilization and surfactant type. Two different surfactant solutions were tested. 2.0 wt. % surfactant solutions were prepared as controls using BioSoft® N1-7 and SLES. Thereafter, 0.4 wt. % aromatic alcohols (R=3 and R=4) were added to each surfactant solution for comparison to the controls. After agitation to generate foam, the percent of initial foam volume loss was far less for the control (without aromatic alcohols).

Time to dissolve = type: physicochemical; conditions: water with 1 wt. % aromatic alcohol
Method: Time to dissolve: Aromatic alcohol, 1% by weight, was added to deionized water to make 500 mL of solution. Stirring was started at 300 rpm. Test ingredient was added to both a 500 mL control deionized water and the 500 mL aromatic alcohol solution as a stopwatch timer was started. The timer was stopped when solution was completely clear and/or no particles of the test ingredient were visible in either sample. This is noted as the “dissolution time”, or time to dissolve. Aromatic alcohols can help solubilize hard-to-dissolve formulation ingredients more quickly and/or without the use of heat. The addition of 1.0 wt. % aromatic alcohol decreased the dissolution time of several common, hard-to-dissolve ingredients as shown in Table 1 below. Table 1 reflects the time to completely dissolve ingredients in water (Control) or water with 1 wt. % aromatic alcohol (R=3 denotes 3-phenylpropanol; R=4 denotes 2-methyl-3-phenylpropanol).

[3] = Shear ramp, oil-in-water emulsion (viscosity); type: physicochemical; conditions: Vanicream skin lotion, concentrations up to 0.5 wt. % aromatic alcohol, 25° C
Method: Shear Ramp oil-in-water emulsion: A 25 mm parallel plate geometry was used on an AR2000ex rheometer at 25° C. A gap of 600 μm was used. The shear was ramped from 0 s^−1 to 100 s^−1 over one minute. Viscosity readings are expressed in Pa·s.
R=3 Aromatic Alcohol. An R=3 aromatic alcohol, i.e., 3-phenylpropanol, was tested in a commercial oil-in-water emulsion, i.e., Vanicream® skin lotion, at 0.1 wt. %, 0.25 wt. % and 0.5 wt. % addition and compared to a control (without aromatic alcohol). […] The low shear (at 10 s^−1) viscosity was increased 68% over the control, while high shear viscosity (at 70 s^−1) increased roughly 100% (FIG. 1). The increase in high and low shear viscosity achieved desirable rheological traits such as richness, creaminess, and enhanced texture and skin feel in this end use personal care product with the addition of the aromatic alcohol. This unexpected result allows personal care and home care formulators, among others, to reduce or eliminate use of separate rheology modifiers to manipulate the viscosity of the final product.

[4] = Final product foam stability (Blender Foam Volume/Drainage method); conditions: 0.5 wt. % aromatic alcohol incorporated into products
Method: Final product foam stability was tested using Blender Foam Volume/Drainage method published by Henkel Corp. 1981.
In the foam loss evaluation above, foam destabilization occurred at the time of addition (with mixing) of the aromatic alcohol. Further testing was performed to determine if the foaming ability of final products would be negatively impacted if aromatic alcohols were added to the formulations during the production process. A variety of commercial products were selected for testing, and 0.5 wt. % of aromatic alcohol (R=3, 3-phenylpropanol) was added to each. […] Foam stability of these commercial products was not reduced by the addition of aromatic alcohol.

[5] = Formulation stability of general purpose cleaner on storage; type: physicochemical; conditions: 0.5 wt. % aromatic alcohol; pH 7; 7 days at 22° C.
Source text: Rapid and complete dissolution of raw materials into aqueous solutions can prevent problems with solution instability over time. For example, a general purpose cleaner containing sodium coco fatty alcohol sulfate and 0.1 wt. % of either hydroxyethyl cellulose or xanthan gum (Table 2) becomes unstable over time across a range of pH values.
Panel (b) of FIG. 10 compares a general purpose cleaner containing hydroxyethyl cellulose at pH 7 with (right side of panel) and without (left side of panel) the use of 0.5 wt. % aromatic alcohol, stored at room temperature for one week, then shaken to disperse precipitants. Panel (c) of FIG. 10 compares a general purpose cleaner containing xanthan gum at pH 5 with (right side of panel) and without (left side of panel) the use of 0.5 wt. % aromatic alcohol (right,) stored at room temperature for one week, then shaken to disperse precipitants.
Similar observations were made with formulations of a general purpose cleaner in the absence of hydroxyethyl cellulose or xanthan gum but containing sodium coco fatty alcohol sulfate surfactant (FIG. 11). FIG. 11 compares a sample of a general purpose cleaner at pH 7 with and without 0.5 wt. % aromatic alcohol (R=3, 3-phenylpropanol). […]

[6] = Coco fatty alcohol sulfate 2.0 wt. %

high shear viscosity increase over the control ([1]; 0.5 wt. % aromatic alcohol) | low shear viscosity increase over the control ([1]; 0.5 wt. % aromatic alcohol) | high shear viscosity increase over the control ([1]; 1.0 wt. % aromatic alcohol) | low shear viscosity increase over the control ([1]; 1.0 wt. % aromatic alcohol) | foam destabilization (foam loss, % of initial foam volume) [2] | Time to Dissolve at 22° C. (Time to dissolve; 1,2-octanediol 1.0 wt. %) | Time to Dissolve at 22° C. (Time to dissolve; [6]) | low shear viscosity increase over the control ([3]; at 10 s^-1) | high shear viscosity increase over the control ([3]; at 70 s^-1) | foam stability of commercial products [4] | homogeneity of general purpose cleaner without hydroxyethyl cellulose or xanthan gum, containing coco fatty alcohol sulfate [5] | Structure (SMILES)
approximately 37% | 110% | 94% | 56% | significantly destabilized foam | 7.8 min | 3.5 min |  |  |  |  | CC(CO)Cc1ccccc1 (stereo not shown) [2-methyl-3-phenylpropanol]
roughly 43% | roughly 36% |  |  | significantly destabilized foam | 8.1 min | 4.0 min | 68% | roughly 100% | not reduced | remained homogeneous | OCCCc1ccccc1 [3-phenylpropanol]
